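Briefly, cells in 96-well plates were exposed to five compound concentrations for 48 h, and endpoints were estimated by linear interpolation. TGI is the concentration that stops growth completely.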
Columns and labels:
Assay in all cases: inhibition of tumour cell growth, NCI panel, 48 h
[1] = tested on: KM20L2 colon
[2] = tested on: SNB-78 CNS
[3] = tested on: SN12C renal
[4] = tested on: SW-620 colon
[5] = tested on: OVCAR-8 ovarian
[6] = tested on: MDA-MB-231 breast
[7] = tested on: MDA-MB-435
[8] = tested on: A498 renal
[9] = tested on: IGROV1 ovarian
[10] = tested on: DLD-1 colon
[11] = tested on: 786-0 renal
[12] = tested on: HOP-18 NSCLC
[13] = tested on: DU-145 prostate

Compound | TGI [1] [µM] | TGI [2] [µM] | TGI [3] [µM] | TGI [4] [µM] | TGI [5] [µM] | TGI [6] [µM] | TGI [7] [µM] | TGI [8] [µM] | TGI [9] [µM] | TGI [10] [µM] | TGI [11] [µM] | TGI [12] [µM] | TGI [13] [µM]
Cc1cn(C2CC(O)C(CO)O2)c(=O)[nH]c1=O (stereo not drawn) | > 5000 | > 5000 | > 4240 | > 5000 | 4960 | > 5000 | > 5000 | > 5000 | > 5000 | > 5000 | > 5000 | > 5000 | > 5000
CCCSCC(P(=O)(O)O)P(=O)(O)O | > 100 | > 100 | > 100 | > 100 | > 100 | – | – | > 100 | > 100 | > 100 | – | > 100 | –
Cc1c(S(=O)(=O)c2ccccc2)c(N)n(CCN(C)C)c1C | – | – | > 100 | > 100 | > 100 | > 100 | > 100 | > 100 | > 100 | – | > 100 | – | > 100
O=c1c2sc(=S)n(-c3ccc(F)cc3)c2ncn1/N=C/c1ccc(F)cc1F | – | – | > 100 | > 100 | 44.9 | 53.4 | > 100 | 58.2 | 89.1 | – | 34.1 | – | 39.4
CSc1nsc(-c2ccccc2)[s+]1 | > 100 | > 100 | > 100 | > 100 | > 100 | – | – | > 100 | > 100 | > 100 | > 100 | > 100 | –
COc1ccc2c(C)cc(=O)oc2c1OC | – | – | > 100 | > 100 | > 100 | > 100 | > 100 | > 100 | > 100 | – | > 100 | – | > 100
CC1=NN(c2cccc(Cl)c2)C2(C1=C/C=C/c1ccccc1)C(Cl)C(=O)N2c1nc2ccccc2s1 (stereo not drawn) | – | – | > 100 | > 96.1 | 62.2 | 58.3 | > 58.4 | > 66 | > 100 | – | > 55 | – | > 38.2
CC1=NS(=O)(=O)c2ccccc2N1 | > 100 | > 100 | > 100 | > 100 | > 100 | – | – | > 100 | > 100 | > 100 | > 100 | > 100 | –
Cc1cc(C(=O)CCCCOc2ccc(C3=NCCO3)cc2)c(C)n1C | – | – | > 100 | > 100 | > 100 | > 100 | 76.6 | 86.8 | > 100 | – | > 100 | – | 79.8
CCNC(=O)Cc1nc2c(N)ncnc2n1C1OC(CO)C(O)C1O (stereo not drawn) | – | – | > 100 | > 100 | > 100 | > 100 | > 100 | > 100 | > 100 | – | > 100 | – | > 100
COc1cc(NS(C)(=O)=O)ccc1Nc1cc(C)[nH]c2ccc3nccc3c12 | – | – | > 100 | > 100 | > 100 | > 100 | > 100 | > 100 | > 100 | – | > 100 | – | > 100
COc1ccc2c(c1)/C(=C\c1c(Cl)nc3sc(C)cn13)C(=O)N2 | – | – | 21.9 | 11.7 | 15.1 | 17.7 | 1.43 | 16.6 | 16.7 | – | 15.1 | – | 18.2
CCCCC(C(=O)NCCNC(=O)CCC(=O)N(C)O)C(=O)NCCNC(=O)CCC(=O)N(C)O | – | – | > 100 | > 100 | > 100 | > 100 | > 100 | > 100 | > 100 | – | > 100 | – | > 100
NC1=NCC(CN2CCOCC2)O1 (stereo not drawn) | – | – | > 100 | > 100 | > 100 | > 100 | > 100 | > 100 | > 100 | – | > 100 | – | > 100
C=CCSc1nnc2cc(CN3CCCC3)c(-c3ccc(Cl)cc3)nn12 | – | – | 32.1 | 93 | 57.1 | 35.6 | 41.7 | 35.9 | 44.3 | – | 33.7 | – | 43.7
NS(=O)(=O)c1cc(Cl)c(NC(=S)NC(=O)Nc2ccc(Cl)c(Cl)c2)c(Cl)c1 | – | – | > 100 | > 100 | > 100 | > 100 | > 100 | 84.4 | > 100 | – | > 100 | – | > 100
CSC(=S)N(C)C | – | – | > 100 | > 100 | > 100 | > 100 | > 100 | > 100 | > 100 | – | > 100 | – | > 100
COc1cccc2c(=O)oc(-c3ccc(C(C)(C)C)cc3)nc12 | – | – | > 100 | > 100 | > 100 | > 100 | > 100 | > 100 | > 100 | – | > 100 | – | > 100
O=[N+]([O-])c1ccc(Oc2c(Cl)cc(S(=O)(=O)/N=C(\NO)Nc3ccc(Cl)cc3)cc2Cl)cc1 | – | – | 25.8 | 28.6 | 27.5 | 25.3 | 28 | 23.3 | 29.8 | – | 23.5 | – | 29.3
N=C(N)SCc1ccc2c(c1)Sc1ccccc1O2 | – | – | 46.9 | 34 | 32.5 | 45.2 | 19.1 | 52.3 | 11.9 | – | 24.6 | – | 28.7
Cc1ccc(S(=O)(=O)N/N=C/C2(c3ccccc3)c3ccccc3-c3ccccc32)cc1 | – | – | 23.9 | 31 | 31.5 | 20.8 | 24.4 | 33 | 23.5 | – | 31.2 | – | 27.1
O=C1NCC2(CCN(CCCC3(c4ccc(F)cc4)OCCO3)CC2)N1c1ccccc1 | – | – | > 100 | > 100 | > 100 | > 100 | > 100 | > 100 | > 100 | – | > 100 | – | > 100
Cc1ccc2c(c1)C(=O)C1(Cc3ccccc3C1=O)C2 (stereo not drawn) | – | – | > 100 | > 100 | > 100 | > 100 | > 100 | > 100 | > 100 | – | > 100 | – | > 100

Reference: PubChem BioAssay (NCI)
